One data set deals with S. aureus ATCC 29213. In words: Antibacterial screening, broth microdilution (MIC/MBC). The format is cell-based, Staphylococcus aureus. As to conditions: Staphylococcus aureus, ATCC29213; for MIC: S. aureus ATCC 29213, MHB, 24 h, 35 °C, read-out: MIC; for MBC: S. aureus ATCC 29213, read-out: MBC. On the procedure:
(§1) The antimicrobial activities of a series of compounds 1–5 were tested through the utilization of seven reference species, encompassing both Gram-positive (Staphylococcus aureus ATCC 29213, Staphylococcus epidermidis ATCC 12228, Micrococcus luteus ATCC 10240) and Gram-negative (Escherichia coli ATCC 25922, Klebsiella pneumoniae ATCC 13883, Proteus mirabilis ATCC 12453, Acinetobacter baumannii ATCC 19606) bacteria as model microorganisms. For this purpose, microbial suspensions were prepared in sterile saline (0.85% NaCl) with an optical density of 0.5 McFarland standard, yielding a concentration of 150 × 10^6 CFU/mL (CFU, colony-forming units). All of the stock solutions of the tested compounds were dissolved in DMSO. Amoxicillin (Glentham Life Sciences Ltd., Corsham, UK) was used as a positive control.
(§2) The MIC values of the tested compounds were determined by serial twofold dilutions of 1–5 in Mueller Hinton Broth (MHB, Biomaxima, Lublin, Poland). The range of final 1–5 concentrations used was from 0.49 up to 1000 μg/mL, and for amoxicillin from 0.12 up to 250 μg/mL in the 96-well microtiter plates (Medlab, Raszyn, Poland), starting with 98 μL MHB and 2 μL bacterial inoculum added to each well. Positive controls consisted of 100 μL MHB in each well with the tested compounds at the same concentration range. The negative controls consisted of 100 μL of MHB only. Each set of tests and controls was established with three replicates. The microtiter plates were then subjected to an incubation period of 24 h at a temperature of 35 ± 2 °C. After incubation, the optical density of the microbial growth was measured at a wavelength of 600 nm using a microplate reader, the Biotek Elx800 (BioTek Instruments, Inc., Winooski, VT, USA). The MIC value was defined as the lowest concentration of the tested compound at which there was no visible growth of the tested microorganisms. The determination of the MIC values was achieved by employing the broth microdilution method, in accordance with the recommendations of the European Committee on Antimicrobial Susceptibility Testing (EUCAST). […] Then, the MHA plates were incubated overnight at 35 ± 2 °C. […] The MIC and MBC values were reported in μg/mL, according to the EUCAST reference.
On the technique in general: In broth dilution the organism is exposed to a series of concentrations in liquid medium.

The next data set relates to H1HeLa cells. The data set can be described thus: Cytotoxicity, microculture tetrazolium (MTT) test, H1HeLa. The format is cell-based. As to conditions: H1HeLa, 24 h, microscopy. On the procedure: The cytotoxicity of biaryl monophosphines was tested in vitro in normal (VERO) and cancer-derived (H1HeLa) cells after 24 h of incubation using a microculture tetrazolium test. Table 2 presents the CC50 (concentrations decreasing the cellular viability by 50%) values calculated from dose–response cytotoxicity curves (Figure 4).
Cytotoxicity was evaluated using a microculture tetrazolium test as previously described, and details can be found in the Supplementary Materials. The cell lines used in the presented study were acquired from the American Type Culture Collection (ATCC); the one used for cytotoxicity testing included non-cancerous VERO (kidney; ATCC CCL-81) cells and cancer-originating H1HeLa (cervical adenocarcinoma; ATCC CRL-1958) cells. VERO cells were cultured in Dulbecco’s Modified Eagle’s Medium (DMEM; Corning, Tewksbury, MA, USA), while Eagle’s Minimum Essential Medium (MEM; Corning) was used for H1HeLa. Antibiotics (penicillin–streptomycin solution, Corning) and fetal bovine serum (FBS, Corning) were added to cell media. Cells were incubated in a 5% CO2 atmosphere at 37 °C (CO2 incubator, Panasonic Healthcare Co., Tokyo, Japan). Briefly, the monolayers of VERO or H1HeLa cells in 96-well plates (Falcon, Corning) were treated with serial dilutions of selected compounds for 24 h. After this, the medium was removed, the plates were washed with phosphate buffered saline (PBS; Corning), a 10% solution of (3-(4,5-dimethylthiazol-2-yl)-2,5-diphenyltetrazolium bromide (MTT; Sigma-Aldrich, St. Louis, MO, USA) (5 mg/mL) in FBS-free cell media was added, and the incubation continued for the next 4 h. Subsequently, the precipitated formazan crystals were dissolved, and after overnight incubation at 37 °C, the Synergy H1 Multi-Mode Microplate Reader (BioTek Instruments, Inc., Winooski, VT, USA) with Gen5 software (ver. 3.09.07; BioTek Instruments, Inc.) was used for absorbance acquisition (540 and 620 nm). Data was exported to GraphPad Prism (ver. 10) to calculate the CC50 values (50% cytotoxic concentration) from dose–response curves.
Aromaticity Tuning in Biaryl Monophosphines and Their Derivatives […]
Cell line maintenance and in vitro experiments
The cytotoxicity of selected biaryl monophosphines was evaluated in vitro towards normal VERO (ATCC, CCL-81) cells and cancer-derived cell line H1HeLa (cervical adenocarcinoma; ATCC (American Type Culture Collection) CRL-1958) using 3-(4,5-dimethylthiazol-2-yl)-2,5-diphenylte-trazolium bromide (MTT) based protocol.
Media used for in vitro culturing included Dulbecco's Modified Eagle's Medium (DMEM, Corning, Tewksbury, MA, USA) used for VERO cells and Modified Eagle Medium (MEM, Corning) used for H1HeLa. Cell media used in the experiments were supplemented with antibiotics (Penicil-lin-Streptomycin Solution, Corning) and fetal bovine serum (FBS, Corning) – 10% (cell passaging) and 2% (cell maintenance and experiments). Phosphate-buffered saline (PBS) and trypsin were bought from Corning, whereas MTT (3-(4,5-dimethylthiazol-2-yl)-2,5-diphenyltetrazolium bromide) from Sigma (Sigma-Aldrich, St. Louis, MO, USA). SDS was purchased from PanReac Applichem (Darmstadt, Germany). Incubation was carried out in a 5% CO2 atmosphere at 37°C (CO2 incubator, Panasonic Healthcare Co., Tokyo, Japan).
Concentrations of cells for passaging were as follows: VERO – 1.5*10^5 cells/mL, H1HeLa – 2*10^5 cells/mL. Routine observations of cell cultures and experiments were carried out using an in-verted microscope (CKX41, Olympus Corporation, Tokyo, Japan) equipped with a ca mera (Moti-cam 3+, Motic, Hong Kong), and the results were recorded (Motic Images Plus 2.0, Motic).
Stock solutions of biaryl monophosphines were prepared by dissolving the samples in cell culture grade DMSO (PanReac Applichem).
Evaluation of cytotoxicity
Cytotoxicity was tested using an MTT-based protocol. The cells were passaged into 96-well plates (Falcon, TC-treated, Corning) and, after overnight incubation, treated with serial dilutions of […]

In another data set the test system is P. mirabilis ATCC 12453. The data set can be described thus: Antibacterial screening, broth microdilution (MIC/MBC). As to conditions: Proteus mirabilis, ATCC12453; P. mirabilis ATCC 12453, MHB, 24 h, 35 °C; read-out: MIC. Type of data set: cell-based, Proteus mirabilis. On the procedure: as §1, §2
The test system of the next data set is A. baumannii ATCC 19606. The data set is described as above. Type of data set: cell-based, Acinetobacter baumannii. As to conditions: Acinetobacter baumannii, ATCC19606; A. baumannii ATCC 19606, MHB, 24 h, 35 °C; read-out: MIC. As for the experimental part:
as §1, §2

Converted amounts (≈) assume the structure as drawn.

What is called MIC is the lowest concentration that inhibits growth of the organism. Broadly, the MBC is the lowest tested concentration that kills the bacteria rather than only halting them. Turning to `COc1cc(OC)c(-c2c(P(=O)(C3CCCCC3)C3CCCCC3)c(OC)c3ccccc3c2OC)c(OC)c1` [Compound 1, Dicyclohexyl[1,4-dimethoxy-3-(2,4,6-trimethoxyphenyl)naphthalen-2-yl]phosphane oxide], the MIC was 15.6 to 31.2 µg/mL (≈ 27.6 to 55.1 µM) with S. aureus ATCC 29213, > 1000 µg/mL in the data set with P. mirabilis ATCC 12453 and 1000 µg/mL (≈ 1760 µM) in the data set on A. baumannii ATCC 19606. For the same compound, the MBC in the data set with S. aureus ATCC 29213 was > 1000 µg/mL. For the same compound, the “influence on morphology of the cellular monolayer” value (from here on “influence on morphology”) with H1HeLa cells (12.5 µg/mL) was “monolayer of H1Hela was destroyed”.

On to `COc1ccccc1-c1c(P(=O)(C2CCCCC2)C2CCCCC2)c(OC)c2ccccc2c1OC` [Compound 2, Dicyclohexyl[1,4-dimethoxy-3-(2-methoxyphenyl)naphthalen-2-yl]phosphane oxide], for which the MIC is 7.82 to 15.6 µg/mL (≈ 15.4 to 30.9 µM) in the data set on S. aureus ATCC 29213, > 1000 µg/mL with P. mirabilis ATCC 12453 and 500 µg/mL (≈ 987 µM) with A. baumannii ATCC 19606. In addition, in the data set on S. aureus ATCC 29213, the MBC is > 1000 µg/mL. Further, the “influence on morphology” value with H1HeLa cells (12.5 µg/mL) is listed as “monolayer of H1Hela was destroyed”.

In the case of `COc1cc(OC)c(-c2c(P(=O)(C3CCCCC3)C3CCCCC3)c(O)c3ccccc3c2OC)c(OC)c1` [Compound 3, 2-(Dicyclohexylphosphoryl)-4-methoxy-3-(2,4,6-trimethoxyphenyl)naphthalen-1-ol], the MIC in the data set with S. aureus ATCC 29213 was 62.5 to 125 µg/mL (≈ 113 to 226 µM); in the data set on P. mirabilis ATCC 12453 it was > 1000 µg/mL; in the data set with A. baumannii ATCC 19606, > 1000 µg/mL. Moreover, in the data set with S. aureus ATCC 29213, the minimal bactericidal concentration (MBC) was > 1000 µg/mL. The “influence on morphology” value in the data set with H1HeLa cells (1.6 µg/mL) was “the cellular monolayer resembled the control cells”; in the data set on H1HeLa cells (3.1 µg/mL), “only a fraction of shrunken cells visible”; with H1HeLa cells (6.3 µg/mL) it was “most of the cells showed cytotoxic damage”; in the data set with H1HeLa cells (12.5 µg/mL), “destroyed the cellular monolayer”.

(Values after PMC12525867, “Aromaticity Tuning in Biaryl Monophosphines and Their Derivatives” (Molecules, 2025).)
